What was measured:
[1] = tested on: Male Wistar rats; test: p-PCA-induced ejaculation in anesthetized rats (ejaculation-delaying effect); format: in vivo, rat; settings: for Ratio: Number of responding animals/total animal number: 50 mg/kg oral in 1% HPMC, p-PCA 5 mg/kg i.p. 80 min later, observed 30 min; for Latency: Time to display the ejaculatory response: 50 mg/kg oral, p-PCA 5 mg/kg i.p., mean ± standard deviation of responding rats
Method in brief: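 Male Wistar rats (240-260 g) received compound orally at 50 mg/kg in 1% HPMC, were anesthetized 60 min later, and 20 min after that were given p-PCA 5 mg/kg i.p. to induce ejaculation. Scored as rhythmic bulbocavernosus contraction plus semen discharge, with six or more animals per compound versus vehicle.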

[2] = Determination of half-lives of the compounds in rats (oral, plasma HPLC); format: in vivo; settings: rat, male Sprague-Dawley rats, 10 mg/kg (text also says 5 mg/kg), 0.5% methylcellulose
Protocol: The half-lives of present compounds were determined as follows. Each compound was administered orally to male Sprague-Dawley rats weighing approximately 270 g at a dose of 10 mg/kg. 5 mg/kg of each compound was suspended in 0.5% methyl-cellulose and then administered to rats. Blood samples were collected 0.017, 0.083, 0.25, 0.5, 1, 2, 3, 5, 7 and 24 hours after administration, and centrifuged at 1,000 rpm for 3 min to separate plasma. The concentration of each compound in plasma was determined using high performance liquid chromatography, which was performed with a mobile phase of 10 mM ammonium formate (pH 3.0) and acetonitrile (50:50), an […] column (21×100 mm, 3 μm) and a flow rate of 0.2 ml/min.

[3] = biological target: T1, 5HT1A receptor (Homo sapiens, UniProt P08908); test: Radioligand competitive binding assay; settings: human-derived recombinant CHO cells
T1 construct: expressed in transfected cells; host or cells: CHO cells
T1 sequence (P08908 1-422): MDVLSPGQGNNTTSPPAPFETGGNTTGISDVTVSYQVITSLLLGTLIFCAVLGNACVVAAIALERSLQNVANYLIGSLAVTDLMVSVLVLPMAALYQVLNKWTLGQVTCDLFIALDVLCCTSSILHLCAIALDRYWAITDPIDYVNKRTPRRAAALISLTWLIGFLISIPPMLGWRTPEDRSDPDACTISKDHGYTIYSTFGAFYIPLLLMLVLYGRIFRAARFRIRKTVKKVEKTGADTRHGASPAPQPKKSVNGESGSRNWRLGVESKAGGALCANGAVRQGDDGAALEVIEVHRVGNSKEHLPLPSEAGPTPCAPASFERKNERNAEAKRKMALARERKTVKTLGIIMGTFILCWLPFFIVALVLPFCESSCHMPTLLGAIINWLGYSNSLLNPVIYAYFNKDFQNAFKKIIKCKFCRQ
Protocol: (§1) In addition, ligand binding to 5HT1A, 5-HT1B and 5-HT2C receptors and 5-HT transporter was evaluated with human-derived recombinant CHO cells, Wistar rat-derived cerebral cortical cells, human-derived recombinant CHO-K1 cells, and human-derived recombinant HEK-293 cells. Each cell line was dosed with 10^−5 μM to 10^4 μM of the compounds of Examples 2, 35, 40 and 45, and then incubated with a radio-labeled ligand for competitive binding. Ligands used were […], [^125I]Cyanopindolol, [^3H]Mesulergine and [^3H]Paroxetine, respectively. The competitive binding assay was carried out in 50 mM Tris-HCl buffer at 25° C. or 37° C., for 60 to 90 min.

[4] = biological target: T2, 5-HT1B receptor (Rattus norvegicus, UniProt P28564); test: Radioligand competitive binding assay, [125I]Cyanopindolol; settings: Wistar rat-derived cerebral cortical cells
T2 construct: Wistar rat-derived cerebral cortical cells; from tissue; host or cells: Wistar rat cerebral cortex
Protocol: as §1

[5] = biological target: T3, 5-HT2C receptor (Homo sapiens, UniProt P28335); test: Radioligand competitive binding assay, [3H]Mesulergine; settings: human-derived recombinant CHO-K1 cells
T3 construct: expressed in transfected cells; host or cells: CHO-K1 cells
T3 sequence (P28335 33-458): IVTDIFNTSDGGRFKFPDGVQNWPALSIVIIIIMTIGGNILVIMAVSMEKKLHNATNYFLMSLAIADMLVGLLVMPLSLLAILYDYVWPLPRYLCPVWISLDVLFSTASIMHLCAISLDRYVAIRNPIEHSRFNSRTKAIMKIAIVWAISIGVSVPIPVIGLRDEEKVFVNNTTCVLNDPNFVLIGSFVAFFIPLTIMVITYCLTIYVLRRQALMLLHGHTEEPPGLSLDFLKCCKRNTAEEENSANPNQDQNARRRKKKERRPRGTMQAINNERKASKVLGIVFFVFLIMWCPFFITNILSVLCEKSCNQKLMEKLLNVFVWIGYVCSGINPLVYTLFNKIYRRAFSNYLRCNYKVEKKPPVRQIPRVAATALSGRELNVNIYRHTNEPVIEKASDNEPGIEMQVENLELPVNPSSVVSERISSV
Protocol: as §1

[6] = biological target: T4, 5-HT transporter (Homo sapiens, UniProt P31645); test: Radioligand competitive binding assay, [3H]Paroxetine; settings: human-derived recombinant HEK-293 cells
T4 construct: expressed in transfected cells; host or cells: HEK-293 cells
Protocol: as §1

[7] = tested on: cellular uptake of dopamine; test: Cellular reuptake assay, [3H]dopamine; format: cell-based; settings: 10 min, CHO-1 cell line
Protocol: (§2) First, the effects of the present compounds on cellular uptake of dopamine, norepinephrine and serotonin were evaluated with human-derived CHO-1, MDCK and HEK-293 cell lines. Each cell line was dosed with 10^−5 μM to 10^4 μM of the compounds of Examples 2, 35, 40 and 45, and then incubated with [^3H]dopamine, [^3H]norepinephrine and [^3H]serotonin in buffer. After 10 min, the amount of each neurotransmitter taken up into cells was determined by counting radioactivity using a liquid scintillation counter (LSC).

[8] = tested on: cellular uptake of norepinephrine; test: Cellular reuptake assay, [3H]norepinephrine; format: cell-based; settings: 10 min, MDCK cell line
Protocol: as §2

[9] = tested on: cellular uptake of serotonin; test: Cellular reuptake assay, [3H]serotonin; format: cell-based; settings: Homo sapiens, HEK293, 10 min, HEK-293 cell line
Protocol: as §2

[10] = tested on: Sprague-Dawley (SD) rats; test: Acute toxicity test, single dose, mortality; format: in vivo, rat; set-up: unit not given here
Source text: The present derivatives and citalopram were individually administered orally and intra-venously to SD rats at a single dose.

[11] = biological target: hERG (human Ether-a-go-go Related Gene) (Homo sapiens, UniProt Q12809); test: Cardiotoxicity test, hERG assay (MDS Pharma)
Source text: To evaluate the safety of the present derivatives in comparison with control drug, conducted was hERG (human Ether-a-go-go Related Gene) assay which is a representative test of safety medical test. This test was requested to trial institute MDS Pharma., which conducted this test.

[12] = tested on: Salmonella typhimurium TA98, 100, 1535, 1537, E. coli WP2 uvrA; test: Mutagenicity test: Ames test; format: cell-based; settings: 8, 40, 200, 1000, 2500, 5000 μg/plate, presence/absence of a metabolic activation system
Protocol: (§3) To evaluate the safety of the present derivatives, mutagenicity test was conducted. Ames test and chromosome aberration test were conducted with the examples 2, 35, 40 and 45.

[13] = tested on: CHL (Chinese Hamster Lung) cell; test: Mutagenicity test: chromosome aberration test; format: cell-based; settings: 75, 150, 300 μg/ml with metabolic activation; 20, 40, 80 μg/ml without
Protocol: as §3

[14] = tested on: Salmonella typhimurium TA98, 100, 1535, 1537, E. coli WP2 uvrA; settings: reported 'in the same test'; which test is not specified; cited from earlier work

T4 sequence (P31645 whole entry): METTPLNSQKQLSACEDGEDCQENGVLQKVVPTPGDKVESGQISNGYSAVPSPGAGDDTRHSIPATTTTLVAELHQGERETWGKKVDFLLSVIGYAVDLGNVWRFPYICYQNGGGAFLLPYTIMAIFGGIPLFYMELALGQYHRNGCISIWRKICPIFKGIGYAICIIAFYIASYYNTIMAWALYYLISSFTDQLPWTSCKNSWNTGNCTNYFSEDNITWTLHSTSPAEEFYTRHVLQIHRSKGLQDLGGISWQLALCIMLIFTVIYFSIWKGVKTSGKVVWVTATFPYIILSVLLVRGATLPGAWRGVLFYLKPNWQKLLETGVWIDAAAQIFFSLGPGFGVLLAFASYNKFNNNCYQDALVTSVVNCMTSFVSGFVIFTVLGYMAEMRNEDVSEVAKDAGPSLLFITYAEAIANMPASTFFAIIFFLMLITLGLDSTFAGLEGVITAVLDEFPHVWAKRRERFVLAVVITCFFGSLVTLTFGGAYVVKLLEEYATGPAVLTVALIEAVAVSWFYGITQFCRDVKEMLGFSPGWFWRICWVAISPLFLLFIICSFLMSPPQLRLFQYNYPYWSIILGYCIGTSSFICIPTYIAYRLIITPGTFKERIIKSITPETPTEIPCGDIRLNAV
Chain of hERG (human Ether-a-go-go Related Gene) (Q12809 whole entry): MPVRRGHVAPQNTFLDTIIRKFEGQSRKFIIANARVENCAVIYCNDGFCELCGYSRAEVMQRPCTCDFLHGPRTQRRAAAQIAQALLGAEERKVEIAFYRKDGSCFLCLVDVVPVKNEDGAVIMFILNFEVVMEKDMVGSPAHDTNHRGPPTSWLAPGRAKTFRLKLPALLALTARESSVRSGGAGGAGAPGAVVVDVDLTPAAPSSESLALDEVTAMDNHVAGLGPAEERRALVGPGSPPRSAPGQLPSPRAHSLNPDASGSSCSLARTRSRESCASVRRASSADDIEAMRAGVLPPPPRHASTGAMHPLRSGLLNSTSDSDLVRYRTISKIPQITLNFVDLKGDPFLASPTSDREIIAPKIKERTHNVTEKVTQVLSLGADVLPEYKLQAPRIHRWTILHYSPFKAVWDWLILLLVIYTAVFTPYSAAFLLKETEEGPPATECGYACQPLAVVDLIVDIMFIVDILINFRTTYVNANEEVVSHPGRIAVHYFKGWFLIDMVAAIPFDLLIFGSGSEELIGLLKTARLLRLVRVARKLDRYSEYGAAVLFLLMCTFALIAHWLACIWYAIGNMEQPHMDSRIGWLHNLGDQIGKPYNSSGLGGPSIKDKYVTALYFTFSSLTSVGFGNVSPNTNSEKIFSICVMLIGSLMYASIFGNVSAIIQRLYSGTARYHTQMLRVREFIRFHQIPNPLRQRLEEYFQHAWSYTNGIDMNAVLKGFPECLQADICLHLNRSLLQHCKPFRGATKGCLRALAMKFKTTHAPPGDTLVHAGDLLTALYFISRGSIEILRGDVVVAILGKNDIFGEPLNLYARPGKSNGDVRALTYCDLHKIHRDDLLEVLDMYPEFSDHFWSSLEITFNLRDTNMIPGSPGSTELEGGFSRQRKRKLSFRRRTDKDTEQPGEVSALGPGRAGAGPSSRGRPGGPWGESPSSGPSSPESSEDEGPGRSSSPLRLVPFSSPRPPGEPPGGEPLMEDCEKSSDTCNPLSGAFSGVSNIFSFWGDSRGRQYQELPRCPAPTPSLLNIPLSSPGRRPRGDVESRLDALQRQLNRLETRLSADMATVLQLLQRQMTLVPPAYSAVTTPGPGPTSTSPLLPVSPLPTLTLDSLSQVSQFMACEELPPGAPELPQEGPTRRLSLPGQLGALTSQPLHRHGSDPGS
T2 sequence (P28564 whole entry): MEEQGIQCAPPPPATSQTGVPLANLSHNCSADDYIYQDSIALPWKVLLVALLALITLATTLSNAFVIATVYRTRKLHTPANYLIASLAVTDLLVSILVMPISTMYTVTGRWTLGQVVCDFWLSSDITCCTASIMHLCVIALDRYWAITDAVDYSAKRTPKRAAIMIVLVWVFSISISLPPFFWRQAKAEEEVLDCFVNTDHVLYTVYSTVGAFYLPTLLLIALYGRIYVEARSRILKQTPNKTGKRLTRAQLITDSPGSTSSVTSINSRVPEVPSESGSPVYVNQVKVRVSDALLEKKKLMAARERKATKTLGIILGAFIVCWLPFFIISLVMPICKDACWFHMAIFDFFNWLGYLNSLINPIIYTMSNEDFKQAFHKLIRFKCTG

Structure (SMILES) | Ratio: Number of responding animals/total animal number [1] | Latency: Time to display the ejaculatory response [1] [s] | Tmax [2] [min] | half-life [2] [min] | IC50 [3] [µM] | IC50 [4] [µM] | IC50 [5] [µM] | IC50 [6] [µM] | IC50 [7] [µM] | IC50 [8] [µM] | IC50 [9] [µM] | minimum lethal dose ([10]; Intravenously, female SD rats) | minimum lethal dose ([10]; Intravenously, male SD rats) | minimum lethal dose ([10]; Orally, female SD rats) | minimum lethal dose ([10]; Orally, male SD rats) | IC50 [11] [µM] | Ames test result [12] | chromosome aberration test result [13] | mutagenicity test result as reported [14]
CN(C)CCCC1(c2cccs2)OCc2cc(C#N)ccc21.O=C(O)C(=O)O (centres unmarked) [Ex. 40, 1-{3-(dimethylamino)propyl}-1-(2-thienyl)-1,3-dihydro-5-isobenzofurancarbonitrile oxalate] | 3/9 | 876 ± 110 | 15 | 75.6 | 967 | > 1000 | 10.1 | 0.0125 | 124 | 69.1 | 0.531 | 50 | 50 | 800 | 800 | 8.7 | negative | negative | 
N#Cc1ccc2c(c1)COC2(CCCn1ccnc1)c1cccs1.O=C(O)C(=O)O (centres unmarked) [Ex. 45, 1-{3-(imidazole-1-yl)propyl}-1-(2-thienyl)-1,3-dihydro-5-isobenzofurancarbonitrile oxalate] | 2/9 | 676 ± 10 | 15 | 63.6 | 898 | > 1000 | 8.88 | 0.0087 | 94.2 | 67.3 | 0.465 | 50 | 50 | 1000 | 1000 | 10.6 | negative | negative | 
COc1ccc(C2(CCCN(C)C)OCc3cc(C#N)ccc32)cc1.O=C(O)C(=O)O (centres unmarked) [Ex. 2, 1-{3-(dimethylamino)propyl}-1-(4-methoxyphenyl)-1,3-dihydro-5-isobenzofurancarbonitrile oxalate] | 0/9 |  | 19.8 | 76.8 | 805 | > 1000 | 7.12 | < 0.0001 | 85.7 | 36.5 | 0.304 | 70 | 70 | 1000 | 1000 | 19.4 | negative | negative | 
CN(C)CCCC1(c2ccc(N(C)C)cc2)OCc2cc(C#N)ccc21.O=C(O)C(=O)O (centres unmarked) [Ex. 35, 1-(4-dimethylaminophenyl)-1-{3-(dimethylamino)propyl}-1,3-dihydro-5-isobenzofurancarbonitrile oxalate] | 0/9 |  | 15 | 211 | 1120 | > 1000 | 898 | 0.001 | 100 | 53.2 | 0.425 | 50 | 50 | 1000 | 1000 | 12.2 | negative | negative | 
CN(C)CCCC1(c2ccc(F)cc2)OCc2cc(C#N)ccc21 (centres unmarked) [Citalopram, reference compound] |  |  | 19.8 | 194 |  |  |  |  |  |  |  | 30 | 30 | 650 | 650 |  |  |  | positive
